# Data from patent US20110076236A1, “COMPOSITIONS AND METHODS OF TREATMENT USING MODULATORS OF MOTONEURON DISEASES” (Kinemed, Inc., priority 2008, published 2011).
# Entries after “also recorded” stand apart in the source; their conditions may differ.
# What was measured:
# SOD1-G93A TGN mice = assay: Clinical assessment (gait/stride length, onset, end stage) of SOD1-G93A TGN mice treated from presymptomatic stage; assay type: in vivo, mouse; details: treatment from 7 weeks; for Mortality: age at death; for Onset of Motor Deficits: age at onset
# Description: FIG. 6. Noscapine-MK801 combination delays onset of disease and death in SOD1-G93A TGN mice. The one and two-drug treatments were started at an early (i.e., presymptomatic) stage of disease (7 weeks). […] Mice received noscapine intraperitoneally and MK-801 in drinking water.
# Female SOD-1 G93A TGN mice were obtained from Jackson laboratory (strain #2726). The controls were matched litter mates. Treatment groups were three per group. Noscapine was injected intraperitoneal in the thigh 3 times/week (0.2 mg/kg i.p.) and MK801 was administered continuously in drinking water (12 mg/kg/d). Gait analysis was done by the method of Wooley et al., Muscle Nerve 2005 32(1):43-50 and Carter et al. J. Neurosci., 19(8):3248-3257, hereby incorporated by reference in their entirety.
# For clinical assessment endpoints scoring was selected as follows:
# GROUP CLASSIFICATION: Presymptomatic
# Clinical signs: Full mobility and no observable difference in behavior from age-matched controls (Gait or stride length analysis).
# GROUP CLASSIFICATION: Onset
# Clinical signs: Abnormal Gait or stride length analysis and hindlimb weakness: >40% reduction in stride length vs. age-matched littermates.
# GROUP CLASSIFICATION: End Stage (euthanization)
# Clinical signs: noticeable and complete hind limb paralysis (which in this strain occurs more on one limb than the other) and inability to right themselves in 5 sec time window. This stage starts usually as the mice are failing the gait analysis test and enter the End stage. Therefore, Transgenic SOD1-G93A TGN mice are euthanized at the onset of noticeable and complete hindlimb paralysis and inability to right themselves in 5 sec time window.
# [1] = in vivo; cited from earlier work
# [2] = tested on: MT-mediated fast axonal transport; assay: MT-mediated fast axonal transport of 2H-label neuregulin-1 and chromogranin-B synaptic vesicle cargo (CSF secretion, spinal cord retention); assay type: in vivo, mouse; details: 13 weeks SOD1 G93A mice; 3 weeks treatment, 100 mg/kg/d and 200 mg/kg/d
# Description: After 3 weeks of treatment with MTMA noscapine (100 mg/kg/d and 200 mg/kg/d) an intraperitoneal pulse dose of 30-35 ml/kg ^2H2O CSF was given and CSF as well as spinal cord lumbar region were collected from 13 weeks wild type (WT) and symptomatic SOD1 G93A mice at 24, 48 and 72 h, respectively. CSF secretion rates and neuronal kinetic of retention of ^2H-label neuregulin-1 [NeuR-1] or ^2H-label chromogranin-B [Chr-B] containing synaptic vesicles were measured as described above (FIGS. 23 and 24). […] Neuroprotective actions of agents are evaluated by comparing their ability to normalize the time course, extent or pattern of appearance of labeled secreted synaptic vesicle “cargo” molecules in the body fluid or tissue sampled
# As detailed in FIG. 25 (A) transgenic SOD G93A mice (representing an animal model of ALS), are given heavy water (^2H2O), to label secreted molecules in motor neurons (n=30 mice total). […] Protein-derived amino acids were derivatized to pentafluorobenzyl derivatives, and ^2H incorporation in alanine released from neuregulin-1 were measured by GC/MS. […] Protein-derived amino acids are derivatized to pentafluorobenzyl derivatives, and ^2H incorporation from ^2H2O into derivatized-alanine is measured by GC/MS, as described in detail elsewhere [Fanara, P. et al. In vivo measurement of microtubule dynamics using stable isotope labeling with heavy water. […]
Structure (SMILES),Mortality (SOD1-G93A TGN mice) [days],Onset of Motor Deficits (SOD1-G93A TGN mice) [days],blood brain barrier penetration [1],half-life in CNS tissue (brain and spinal cord) and PNS [1],fast axonal transport of 2H-label neuregulin-1 and chromogranin-B containing synaptic vesicles [2]
"C[C@]12N[C@H](Cc3ccccc31)c1ccccc12 [MK-801, Dizocilipine]",112 to 119,105 to 112,,,
"COc1ccc2c(c1OC)C(=O)O[C@@H]2[C@H]1c2c(cc3c(c2OC)OCO3)CCN1C [Noscapine, noscapine]",112 to 119,98 to 105,penetrates the blood brain barrier,long half-life,normalized MT-mediated fast axonal transport rates; also recorded: improves this delayed fast axonal transport
